Reference: patent publication US9624544B2, “Allelic disorders caused by mutations in TRPV4” (Northwestern University, priority 2009, dated 2017)

Columns and labels:
[1] = tested on: TRPV4 (wtTRPV4, TRPV4R269H, TRPV4R316C); assay: Calcium imaging, internal Fura-2 fluorescence ratio (340/380), in transiently transfected HEK293 cells; type: cell-based, human; details: for effect on [Ca2+]i (internal fluorescence ratio): WT-TRPV4, R269H and R316C transfected HEK293 cells
Protocol: The TRPV4 channel responds to a variety of stimuli (Nilius et al. Physiol Rev 87, 165-217 (2007); herein incorporated by reference in its entirety). To test the potential effects of the mutations on calcium channel activity, the calcium channel activity of transiently transfected HEK293 cells was analyzed using internal Fura-2 fluorescence ratio (340/380) as an indicator of the intracellular Ca2+ levels, which depend on Ca2+ influx. Calcium levels of the transfected cells were examined in response to various stimuli, including TRPV4-specific agonist 4α-phorbol 12, 13-didecanoate (4αPDD) (SEE FIG. 4), osmotic cell swelling (SEE FIG. 5), moderate heat (37° C.) (SEE FIG. 9) and endogenous agonist arachidonic acid (SEE FIG. 10). A consistent pattern of channel response to different stimuli was observed. […] The increased calcium channel activity was inhibited by TRPV antagonist ruthenium red.
Human embryonic kidney cells (HEK293) were grown on collagen-coated glass coverslips in Dulbecco's modified Eagle's medium containing 10% (v/v) human serum, 2 mM L-glutamine, 2 U/ml penicillin, and 2 […] at 37° C. in a humidity-controlled incubator with 5% CO2. The cells were transiently transfected with expression vectors, wild-type TRPV4, TRPV4^R316C or TRPV4^R269H using Lipofectamine 2000 (Invitrogen).
Intracellular free calcium concentration was measured using digital video microfluorimetry. Twenty-four hours after transfection, cells were rinsed briefly with HEPES buffer (120 mM NaCl, 5.4 mM KCl, 1.6 mM MgCl2, 1.8 mM CaCl2, 11 mM glucose, and 25 mM HEPES, pH 7.2), and loaded with 4 μM fura-2 AM (Molecular Probes) in HEPES buffer for 30 min at room temperature. […] The coverslips were then mounted on the stage of a Nikon Diaphot inverted epifluorescence microscope equipped for digital fluorescence microscopy. After excitation at 340 nm (Ca^2+-bound) and 380 nm (Ca^2+-free) fluorescence was digitally monitored at 520 nm. […] Values for Rmin and Rmax were determined by applying Ca^2+-free solution and high Ca^2+ containing solution in the presence of 5 μM ionomycin, respectively. […]

[2] = tested on: TRPV4 (wtTRPV4, TRPV4-R269H); assay: Whole cell voltage clamp recordings of TRPV4 currents from transfected HEK293 cells; type: cell-based, human; details: 20 μM ruthenium red in the bath; voltage ramp -100 to 100 mV; cells expressing wtTRPV4 or TRPV4-R269H
Protocol: The effect of the CMT2C-linked mutation (TRPV4R269H) on the electrophysiological properties of TRPV4 was examined. Whole-cell patch-clamp recordings were obtained from transiently transfected HEK293 cells.
Whole cell voltage clamp recordings were performed to HEK293 cells transiently transfected with wild-type or R269H TRPV4 cDNA. […] Similar GFP-fluorescent cells were selected for experiments. […] The series resistance was 4 to 14 MSΩ and was compensated between 65 and 75%. The extracellular solution consisted of (in mM): NaCl 100, KCl 6, MgCl2 2, CaCl2 1.5, Glucose 10, HEPES 10, pH 7.38 adjusted with NaOH, ˜315 mOsm adjusted with sucrose. Whole cell currents were recorded using an Axopatch 200B amplifier (Molecular Devices). Cells were held at −30 mV and currents were elicited by slow voltage ramps (from −100 mV to +100 mV, 0.6 sec duration), filtered at 5 KHz and sampled at 10 KHz. Drugs were bath-applied at a rate of ˜4 ml/min. The current density was determined by normalizing the current to the cell capacitance measured in voltage clamp using a −5 mV square pulse from a holding potential of −30 mV. Ruthenium red was prepared in a 20 mM stock solution (in water) and stored at 2-4° C. Working solutions were prepared freshly daily and were bath applied. After drug application the dish was discarded even if complete wash-out of the drug was obtained.

## CCCCCCCCCC(=O)O[C@@H]1[C@@H](C)[C@@]2(O)[C@@H](C=C(CO)C[C@@]3(O)C(=O)C(C)=C[C@@H]23)[C@@H]2C(C)(C)[C@]12OC(=O)CCCCCCCCC [4αPDD, 4α-phorbol 12, 13-didecanoate]
[1]; 4αPDD 2 μM
  effect on [Ca2+]i (internal fluorescence ratio): induced an increase in [Ca2+]i

## CCCCC/C=C\C/C=C\C/C=C\C/C=C\CCCC(=O)O [AA, arachidonic acid]
[1]; arachidonic acid 10 μM
  effect on [Ca2+]i (internal fluorescence ratio): induced an increase in [Ca^2+]i

## N.N.N.N.N.N.N.N.N.N.N.N.N.N.[Cl-].[Cl-].[Cl-].[Cl-].[Cl-].[Cl-].[O-2].[O-2].[Ru+3].[Ru+3].[Ru+4] [ruthenium red]
[2]
  effect on basal whole-cell currents: dramatically reduced the currents
[1]; ruthenium red 20 μM used to block the stimuli, transfected HEK293 cells
  effect on the increased calcium channel activity: inhibited
